Measurements published in patent US11674967B2, “Method of identifying potential inhibitors of APO TNFα trimers” (UCB BIOPHARMA SRL, priority 2015, dated 2023).

How the values were obtained:
TNFR2 = assay: Membrane TNF - TNFR2 signalling (NS0-mTNF cells with expanded primary human T cells); assay type: cell-based; details: compound bound to membrane TNFα on NS0 cells
Method: A murine B cell line (NS0-mTNF) stably expressing non-cleavable human membrane TNF due to a mutation at the TACE cleavage site was used to trigger TNFR2 signalling in PHA-L and IL-2 expanded primary human T cells. […] TNFR1 was also present on these cells but was blocked using a UCB mouse anti-human-TNFR1 antibody 5R16.
NS0-mTNF cells were cultured with 10 μM NCEs for 1 hour to allow binding of Compounds to membrane TNF. T cells were then mixed with the NS0-mTNF cells and following a brief spin to allow cell-cell contact, cells were incubated for 5 min and then lysed in lysis buffer. […] First TRAF-2 recruitment to the TNFR2 receptor was measured in Co-immunoprecipitation experiments as a measure of membrane proximal signalling. After lysis of cells TNFR2 was isolated from the lysate using polyclonal goat anti-human TNFR2 antibodies followed by protein G sepharose bead purification. TNFR2 associated TRAF-2 was then measured in immunoblots after running the purified TNFR2 preparation on a SDS-PAGE. In addition, the whole cell lysate was also sampled for the presence of pNFκB using SDS-PAGE and pNFκB specific immunoblots.
• PBMC from 3 three different donors were cultured in 6 well plates with 10×10^6 cells per well in 5 ml of RPMI1640 supplemented with 10% FCS, 1% human serum, HEPES GlutaMAX, 25 U/ml hIL-2 (Roche) and 2 μg/ml PHA-L (Sigma) to grow out T cells • after 3 days cells were resuspended and cultured in 75 cm^2 flasks with the same media as above, but lacking the PHA-L • growth of culture was monitored and media was changed every 3 days.
This is a 2× solution • prepare 500 μl of 10×10^6 NS0-wt cells • After 1 h add 500 μl human T cells (50×10^6 cells/test) in human media at 37° C. T cells were preincubated for 15 min @37° C. with 50 μg/ml 5R16 anti-TNFR1 Fab-PEG to block signalling via TNFR1 prior adding to the NS0 cells. […]

[1] = tested on: TNFα-induced IL-8 production; assay: TNFα-induced IL-8 production by human monocytes; assay type: cell-based; details: TNFα ~1 ng/ml, 18 hours
Method: Venous blood from healthy donors was collected by venupuncture into sodium/heparin containing tubes (BD Biosciences). Peripheral blood mononuclear cells (PBMC) were isolated by density gradient centrifugation with Ficoll Paque (Amersham Biosciences). Briefly, 10 mL of blood was diluted 1:1 (v/v) with RPMI 1640 (Gibco) and carefully layered onto 20 mL Ficoll Paque. Cells were spun down for 30 minutes (min) at 470 g, the PBMC collected, washed once in RPMI 1640 and any remaining contaminating erythrocytes lysed in erythrocyte lysis buffer (1 g/L KHCO3, 8.3 g/L NH4Cl, 0.0372 g/L EDTA). Isolation of monocytes from the PBMC was performed using CD14+ Magnetic MicroBeads (Miltenyi Biotec) according to the manufacturer's instructions. Briefly, PBMC were resuspended in Dulbecco's modified Eagle's medium containing 5% BSA (Sigma) and 2 mM EDTA (Sigma) at 1×10^7 cells/ml. […] of CD14 MicroBeads per 10^7 total cells were incubated for 15 min at room temperature. The magnetic separation was performed using a LS column (Miltenyi Biotec). […]
Human IL-8 was measured in the cell culture supernatants using enzyme-linked immunosorbent assay (ELISA) kits from R&D Systems Ltd. according to the manufacturer's instructions. […] Plates were read at a wavelength of 630 nm with correction at 470 nm.

[2] = tested on: hTNFα-induced neutrophil recruitment; assay: Neutrophil recruitment in mice, compound given orally before hTNFα i.p.; assay type: in vivo, Balb/c mice
Method: In a further experiment, mice were treated with hTNFα (0.3 μg/ml) and the compound of formula (3) was administered orally (p.o.).
The compound of formula (3) was made into a suspension in 1% methylcellulose vehicle using a covaris machine.
An anti-human TNFα monoclonal antibody (anti-hTNFα, UCB) was also utilised as a positive control in this study.
Ten male Balb/c mice were used per group except in the group that received anti-hTNFα for which 4 mice were used.
Mice received 100 μL of either vehicle (1% methylcellulose) or compound of formula (3) at 30 mg/kg or 100 mg/kg p.o. 30 minutes (t=−30) or anti-hTNFα at 10 mg/kg i.p. 5 minutes (t=−5) prior to being injected with human TNFα.
All mice were killed by cervical dislocation two hours post-injection of hTNFα (t=2 h) and the peritoneal cavity was lavaged and neutrophil numbers measured as described above.

## Cc1ccc(C)c(Cn2c(C(O)c3ccncc3)nc3ccc(-c4cnn(C)c4)cc32)c1 (stereo not shown) [Compound 15]
TNFR2
  TNFR2 specific membrane proximal (TRAF-2 recruitment to TNFR2) and downstream (pNFκB) signalling: does not impair

## Cc1ccc(C)c(Cn2c(C(O)c3ccncc3)nc3ccccc32)c1 (stereo not shown) [Compound 3]
[1]
  IC50: 454 nM
[2]; 30 mg/kg p.o.
  reduction of TNFα stimulated neutrophil recruitment into the peritoneal cavity: 49%
[2]; 100 mg/kg p.o.
  reduction of TNFα stimulated neutrophil recruitment into the peritoneal cavity: 79%
